US6462063B1, “C-proteinase inhibitors” (Fibrogen, Inc., priority 2000, dated 2002)
pIC50: −log10 of the molar value.

biological target: T1, recombinant human C-proteinase (Homo sapiens, UniProt P13497); test: C-Proteinase IC50 assay, fluorogenic peptide; assay type: biochemical; conditions: 50 μM fluorogenic peptide, pH 7.6, 4 hours at 37° C., fluorescence, read-out: C-Proteinase Inhibitor IC50
T1 sequence (P13497 121-986): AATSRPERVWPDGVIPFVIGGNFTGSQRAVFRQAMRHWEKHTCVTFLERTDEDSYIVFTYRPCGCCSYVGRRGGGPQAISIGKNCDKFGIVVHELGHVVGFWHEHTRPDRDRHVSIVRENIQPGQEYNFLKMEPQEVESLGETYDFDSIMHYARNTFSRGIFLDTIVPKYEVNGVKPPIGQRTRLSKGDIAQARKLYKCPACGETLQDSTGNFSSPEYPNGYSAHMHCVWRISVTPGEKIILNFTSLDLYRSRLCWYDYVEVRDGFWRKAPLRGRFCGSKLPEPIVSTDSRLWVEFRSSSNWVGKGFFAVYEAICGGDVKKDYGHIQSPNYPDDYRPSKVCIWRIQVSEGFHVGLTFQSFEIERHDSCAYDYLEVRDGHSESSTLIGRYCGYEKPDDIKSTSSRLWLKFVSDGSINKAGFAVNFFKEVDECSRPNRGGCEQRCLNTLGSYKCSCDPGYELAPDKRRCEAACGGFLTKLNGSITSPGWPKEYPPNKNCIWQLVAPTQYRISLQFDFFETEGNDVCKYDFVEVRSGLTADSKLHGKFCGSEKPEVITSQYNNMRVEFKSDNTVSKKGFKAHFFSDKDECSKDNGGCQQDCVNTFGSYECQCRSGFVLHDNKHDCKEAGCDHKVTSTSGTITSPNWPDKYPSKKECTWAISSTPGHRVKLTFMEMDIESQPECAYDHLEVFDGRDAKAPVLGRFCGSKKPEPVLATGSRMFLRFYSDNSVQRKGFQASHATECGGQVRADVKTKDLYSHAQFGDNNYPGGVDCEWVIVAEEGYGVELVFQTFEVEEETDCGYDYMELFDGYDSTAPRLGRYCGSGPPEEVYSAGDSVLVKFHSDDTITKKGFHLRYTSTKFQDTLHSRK
Protocol: The following assay may be used to determine the level of activity and effect of the different compounds of the present invention on C-proteinase activity. […] The reaction proceeded for 4 hours at 37° C. and the fluorescence was measured using a Bio-Tek Fl-600.

| Structure (SMILES) | pIC50 |
| --- | --- |
| O=C(CCCC1C(=O)N(C2CCCCC2)C(=O)N1Cc1ccccc1)NO (stereo not drawn) [Compound 107] | 5.48 |
| O=C(CCCC1C(=O)N(C23CC4CC(CC(C4)C2)C3)C(=O)N1Cc1cc(O)ccc1O)NO (stereo not drawn) [Compound 137] | 7.23 |
| COc1ccc(O)c(CN2C(=O)N(C34CC5CC(CC(C5)C3)C4)C(=O)C2CCCC(=O)NO)c1 (stereo not drawn) [Compound 139] | 6.59 |
| O=C(CCCC1C(=O)N(C23CC4CC(CC(C4)C2)C3)C(=O)N1Cc1ccccc1O)NO (stereo not drawn) [Compound 155] | 6.57 |
| O=C(CCCC1C(=O)N(C23CC4CC(CC(C4)C2)C3)C(=O)N1Cc1cccc(O)c1)NO (stereo not drawn) [Compound 161] | 6.85 |
| COc1ccccc1CN1C(=O)N(C23CC4CC(CC(C4)C2)C3)C(=O)C1CCCC(=O)NO (stereo not drawn) [Compound 163] | 6.22 |
| COc1cccc(CN2C(=O)N(C34CC5CC(CC(C5)C3)C4)C(=O)C2CCCC(=O)NO)c1O (stereo not drawn) [Compound 168] | 6.37 |
| O=C(CCCC1C(=O)N(C23CC4CC(CC(C4)C2)C3)C(=O)N1Cc1cccc2c1OCO2)NO (stereo not drawn) [Compound 179] | 6.64 |
| O=C(CCCC1C(=O)N(C2CCCCC2)C(=O)N1Cc1ccccc1O)NO (stereo not drawn) [Compound 195] | 5.97 |
| O=C(CCCC1C(=O)N(C2CCCCC2)C(=O)N1Cc1cccc(O)c1)NO (stereo not drawn) [Compound 198] | 5.91 |
| O=C(CSCC1C(=O)N(C23CC4CC(CC(C4)C2)C3)C(=O)N1Cc1ccccn1)NO (stereo not drawn) [Compound 199] | 6.54 |

More lines, now with the values ahead:

| pIC50 | Structure (SMILES) |
| --- | --- |
| 6.11 | O=C(CCCC1C(=O)N(C23CC4CC(CC(C4)C2)C3)C(=O)N1Cc1ccccc1)NO (stereo not drawn) [Compound 102] |
| 6.54 | O=C(CCCC1C(=O)N(C23CC4CC(CC(C4)C2)C3)C(=O)N1CC1CCCCC1)NO (stereo not drawn) [Compound 127] |
| 6.40 | O=C(CCCC1C(=O)N(C23CC4CC(CC(C4)C2)C3)C(=O)N1CC1CC2C=CC1C2)NO (stereo not drawn) [Compound 128] |
| 6.37 | O=C(CCCC1C(=O)N(C23CC4CC(CC(C4)C2)C3)C(=O)N1CC1CC1)NO (stereo not drawn) [Compound 131] |
| 6.68 | O=C(CCCC1C(=O)N(C23CC4CC(CC(C4)C2)C3)C(=O)N1Cc1ccccn1)NO (stereo not drawn) [Compound 174] |
| 6.64 | O=C(CCCC1C(=O)N(C23CC4CC(CC(C4)C2)C3)C(=O)N1Cc1ccco1)NO (stereo not drawn) [Compound 176] |
| 6.68 | O=C(CCCC1C(=O)N(C23CC4CC(CC(C4)C2)C3)C(=O)N1CC1=COCCC1)NO (stereo not drawn) [Compound 192] |
